Source: PubChem BioAssay (NCI)
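Briefly, cells in 96-well plates were exposed to five compound concentrations for 48 h, and endpoints were estimated by linear interpolation. Abbreviation: GI50, concentration required for 50% inhibition of growth. The concentration for full growth arrest is given as TGI.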

Experiments:
Test in all cases: growth of human tumour cells (NCI), 48 h
MALME-3M melanoma = tested on: MALME-3M melanoma
EKVX NSCLC = tested on: EKVX NSCLC
SF-295 CNS = tested on: SF-295 CNS
SNB-19 CNS = tested on: SNB-19 CNS
COLO 205 colon = tested on: COLO 205 colon
DU-145 prostate = tested on: DU-145 prostate
OVCAR-4 ovarian = tested on: OVCAR-4 ovarian
MCF7 breast = tested on: MCF7 breast
HCC-2998 colon = tested on: HCC-2998 colon
HCT-116 colon = tested on: HCT-116 colon
BT-549 breast = tested on: BT-549 breast
NCI-H226 lung = tested on: NCI-H226 lung
SK-OV-3 ovarian = tested on: SK-OV-3 ovarian
NCI-H522 lung = tested on: NCI-H522 lung
HOP-92 NSCLC = tested on: HOP-92 NSCLC
HCT-15 colon = tested on: HCT-15 colon
U251 CNS = tested on: U251 CNS
T-47D breast = tested on: T-47D breast
SW-620 colon = tested on: SW-620 colon
ACHN renal = tested on: ACHN renal
SNB-75 CNS = tested on: SNB-75 CNS
PC-3 prostate = tested on: PC-3 prostate
MDA-MB-435 = tested on: MDA-MB-435
NCI/ADR-RES ovarian = tested on: NCI/ADR-RES ovarian
UACC-257 melanoma = tested on: UACC-257 melanoma
HOP-62 NSCLC = tested on: HOP-62 NSCLC
NCI-H460 lung = tested on: NCI-H460 lung
HS 578T breast = tested on: HS 578T breast
K-562 leukemia = tested on: K-562 leukemia
IGROV1 ovarian = tested on: IGROV1 ovarian
SN12C renal = tested on: SN12C renal
KM12 colon = tested on: KM12 colon
A498 renal = tested on: A498 renal
SK-MEL-28 melanoma = tested on: SK-MEL-28 melanoma
SK-MEL-5 melanoma = tested on: SK-MEL-5 melanoma
OVCAR-8 ovarian = tested on: OVCAR-8 ovarian
RXF 393 renal = tested on: RXF 393 renal
MDA-MB-231 breast = tested on: MDA-MB-231 breast
UO-31 renal = tested on: UO-31 renal
786-0 renal = tested on: 786-0 renal
OVCAR-3 ovarian = tested on: OVCAR-3 ovarian
SK-MEL-2 melanoma = tested on: SK-MEL-2 melanoma
RPMI-8226 leukemia = tested on: RPMI-8226 leukemia
CAKI-1 renal = tested on: CAKI-1 renal
CCRF-CEM leukemia = tested on: CCRF-CEM leukemia
NCI-H23 lung = tested on: NCI-H23 lung
A549 NSCLC = tested on: A549 NSCLC
TK-10 renal = tested on: TK-10 renal
MOLT-4 leukemia = tested on: MOLT-4 leukemia
SF-539 CNS = tested on: SF-539 CNS
SF-268 CNS = tested on: SF-268 CNS
M14 melanoma = tested on: M14 melanoma
HL-60(TB) leukemia = tested on: HL-60(TB) leukemia
HT29 colon = tested on: HT29 colon
OVCAR-5 ovarian = tested on: OVCAR-5 ovarian
UACC-62 melanoma = tested on: UACC-62 melanoma

With `Cn1cc(-c2cc3ncnc(Nc4ccc(NC(=O)Nc5cc(C(C)(C)C)on5)cc4)c3s2)cn1` the GI50 (MALME-3M melanoma) was 348 nM, the TGI (MALME-3M melanoma) was 3760 nM and the GI50 (EKVX NSCLC) was 1750 nM. The TGI (EKVX NSCLC) was 15000 nM, the GI50 (SF-295 CNS) was 552 nM and the TGI (SF-295 CNS) was 2220 nM. It also gave a GI50 (SNB-19 CNS) of 3740 nM, a TGI (SNB-19 CNS) of over 38300 nM and a GI50 (COLO 205 colon) of 436 nM. For the same molecule, the TGI (COLO 205 colon) was 6420 nM, the GI50 (DU-145 prostate) was 686 nM and the TGI (DU-145 prostate) was over 34900 nM. The GI50 (OVCAR-4 ovarian) was 619 nM, the TGI (OVCAR-4 ovarian) was over 56700 nM and the GI50 (MCF7 breast) was 933 nM. It also gave a TGI (MCF7 breast) of 4860 nM, a GI50 (HCC-2998 colon) of 2500 nM and a TGI (HCC-2998 colon) of 11000 nM. The GI50 (HCT-116 colon) was 377 nM, the TGI (HCT-116 colon) was 6160 nM and the GI50 (BT-549 breast) was 835 nM. The TGI (BT-549 breast) was 4370 nM, the GI50 (NCI-H226 lung) was 517 nM and the TGI (NCI-H226 lung) was 19700 nM. For the same molecule, the GI50 (SK-OV-3 ovarian) was 314 nM, the TGI (SK-OV-3 ovarian) was 16300 nM and the GI50 (NCI-H522 lung) was 916 nM. The TGI (NCI-H522 lung) was 5150 nM, the GI50 (HOP-92 NSCLC) was 1560 nM and the TGI (HOP-92 NSCLC) was 14900 nM. It also gave a GI50 (HCT-15 colon) of 490 nM, a TGI (HCT-15 colon) of over 28500 nM and a GI50 (U251 CNS) of 1450 nM. It also gave a TGI (U251 CNS) of over 40300 nM, a GI50 (T-47D breast) of 513 nM and a TGI (T-47D breast) of over 29000 nM. It also gave a GI50 (SW-620 colon) of 994 nM, a TGI (SW-620 colon) of over 35600 nM and a GI50 (ACHN renal) of 348 nM. It also gave a TGI (ACHN renal) of 13200 nM, a GI50 (SNB-75 CNS) of 182 nM and a TGI (SNB-75 CNS) of 4430 nM. For the same molecule, the GI50 (PC-3 prostate) was 791 nM, the TGI (PC-3 prostate) was 13700 nM and the GI50 (MDA-MB-435) was 600 nM. It also gave a TGI (MDA-MB-435) of 18100 nM, a GI50 (NCI/ADR-RES ovarian) of 2950 nM and a TGI (NCI/ADR-RES ovarian) of over 44500 nM. The GI50 (UACC-257 melanoma) was 2120 nM, the TGI (UACC-257 melanoma) was 14700 nM and the GI50 (HOP-62 NSCLC) was 1870 nM. It also gave a TGI (HOP-62 NSCLC) of 35900 nM, a GI50 (NCI-H460 lung) of 296 nM and a TGI (NCI-H460 lung) of 23800 nM. The GI50 (HS 578T breast) was 400 nM, the TGI (HS 578T breast) was 6550 nM and the GI50 (K-562 leukemia) was 295 nM. For the same molecule, the TGI (K-562 leukemia) was over 100000 nM, the GI50 (IGROV1 ovarian) was 363 nM and the TGI (IGROV1 ovarian) was 21300 nM. The GI50 (SN12C renal) was 379 nM, the TGI (SN12C renal) was 28900 nM and the GI50 (KM12 colon) was 35.1 nM. For the same molecule, the TGI (KM12 colon) was 18200 nM, the GI50 (A498 renal) was 390 nM and the TGI (A498 renal) was 5170 nM. The GI50 (SK-MEL-28 melanoma) was 1060 nM, the TGI (SK-MEL-28 melanoma) was 10500 nM and the GI50 (SK-MEL-5 melanoma) was 904 nM. The TGI (SK-MEL-5 melanoma) was 2860 nM, the GI50 (OVCAR-8 ovarian) was 864 nM and the TGI (OVCAR-8 ovarian) was over 100000 nM. For the same molecule, the GI50 (RXF 393 renal) was 307 nM, the TGI (RXF 393 renal) was 1550 nM and the GI50 (MDA-MB-231 breast) was 1740 nM. For the same molecule, the TGI (MDA-MB-231 breast) was 31700 nM, the GI50 (UO-31 renal) was 320 nM and the TGI (UO-31 renal) was 9340 nM. The GI50 (786-0 renal) was 720 nM, the TGI (786-0 renal) was 8390 nM and the GI50 (OVCAR-3 ovarian) was 1970 nM. The TGI (OVCAR-3 ovarian) was 8440 nM, the GI50 (SK-MEL-2 melanoma) was 390 nM and the TGI (SK-MEL-2 melanoma) was 2470 nM. It also gave a GI50 (RPMI-8226 leukemia) of 441 nM, a TGI (RPMI-8226 leukemia) of 2470 nM and a GI50 (CAKI-1 renal) of 170 nM. The TGI (CAKI-1 renal) was 13900 nM, the GI50 (CCRF-CEM leukemia) was 366 nM and the TGI (CCRF-CEM leukemia) was 2880 nM. For the same molecule, the GI50 (NCI-H23 lung) was 764 nM, the TGI (NCI-H23 lung) was 6540 nM and the GI50 (A549 NSCLC) was 764 nM. The TGI (A549 NSCLC) was 39300 nM, the GI50 (TK-10 renal) was 2980 nM and the TGI (TK-10 renal) was 17700 nM. The GI50 (MOLT-4 leukemia) was 397 nM, the GI50 (SF-539 CNS) was 216 nM and the TGI (SF-539 CNS) was 1870 nM. The GI50 (SF-268 CNS) was 1360 nM, the TGI (SF-268 CNS) was over 37200 nM and the GI50 (M14 melanoma) was 244 nM. The TGI (M14 melanoma) was 4270 nM, the GI50 (HL-60(TB) leukemia) was 1100 nM and the TGI (HL-60(TB) leukemia) was 3510 nM. It also gave a GI50 (HT29 colon) of 631 nM, a TGI (HT29 colon) of 3570 nM and a GI50 (OVCAR-5 ovarian) of 3490 nM. It also gave a TGI (OVCAR-5 ovarian) of 21000 nM, a GI50 (UACC-62 melanoma) of 498 nM and a TGI (UACC-62 melanoma) of 8810 nM.
